Values of other authors in patent US12528029B2, “Separating and quantifying unbound target analytes from biological samples” (ARUP Laboratories, Inc., priority 2017, dated 2026).

Experiments:
[1] = biological target: T1, vitamin D binding protein (VDBP) (Homo sapiens, UniProt P02774); conditions: serum
T1 construct: host or cells: circulating blood / serum
T1 sequence (P02774 17-474): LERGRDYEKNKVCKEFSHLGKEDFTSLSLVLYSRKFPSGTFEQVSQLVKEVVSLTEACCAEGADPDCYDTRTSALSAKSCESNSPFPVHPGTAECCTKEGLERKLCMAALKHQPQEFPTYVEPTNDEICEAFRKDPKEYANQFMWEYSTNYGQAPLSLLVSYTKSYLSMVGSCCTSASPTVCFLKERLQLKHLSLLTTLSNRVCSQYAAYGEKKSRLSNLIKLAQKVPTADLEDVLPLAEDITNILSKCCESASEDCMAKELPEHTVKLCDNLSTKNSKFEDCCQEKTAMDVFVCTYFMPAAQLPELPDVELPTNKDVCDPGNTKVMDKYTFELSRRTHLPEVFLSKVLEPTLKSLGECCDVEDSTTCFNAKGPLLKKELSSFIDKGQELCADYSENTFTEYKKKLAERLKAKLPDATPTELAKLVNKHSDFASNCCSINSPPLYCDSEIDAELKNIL

albumin = biological target: T2, albumin (Homo sapiens, UniProt P02768)
T2 construct: host or cells: circulating blood / serum
T2 sequence (P02768 25-609): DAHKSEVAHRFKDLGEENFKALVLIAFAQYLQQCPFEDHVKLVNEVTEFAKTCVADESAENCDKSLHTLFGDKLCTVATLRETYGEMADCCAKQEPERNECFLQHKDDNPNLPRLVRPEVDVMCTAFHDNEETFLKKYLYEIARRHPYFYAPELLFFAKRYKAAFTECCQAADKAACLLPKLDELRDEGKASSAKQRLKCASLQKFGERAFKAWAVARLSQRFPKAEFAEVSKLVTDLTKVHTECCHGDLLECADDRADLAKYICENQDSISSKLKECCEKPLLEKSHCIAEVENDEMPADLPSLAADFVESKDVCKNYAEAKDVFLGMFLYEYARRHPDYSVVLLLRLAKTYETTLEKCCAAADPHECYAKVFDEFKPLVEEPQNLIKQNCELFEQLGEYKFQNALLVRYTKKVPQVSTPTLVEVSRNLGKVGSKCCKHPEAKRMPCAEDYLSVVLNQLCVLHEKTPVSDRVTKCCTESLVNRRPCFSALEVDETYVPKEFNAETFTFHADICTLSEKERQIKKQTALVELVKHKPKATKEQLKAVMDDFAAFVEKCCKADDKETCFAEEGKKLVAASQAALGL

[2] = biological target: T3, sex hormone-binding globulin (SHBG) (Homo sapiens, UniProt P04278); conditions: share of the protein-bound Te; remainder weakly bound to albumin
T3 sequence (P04278 30-402): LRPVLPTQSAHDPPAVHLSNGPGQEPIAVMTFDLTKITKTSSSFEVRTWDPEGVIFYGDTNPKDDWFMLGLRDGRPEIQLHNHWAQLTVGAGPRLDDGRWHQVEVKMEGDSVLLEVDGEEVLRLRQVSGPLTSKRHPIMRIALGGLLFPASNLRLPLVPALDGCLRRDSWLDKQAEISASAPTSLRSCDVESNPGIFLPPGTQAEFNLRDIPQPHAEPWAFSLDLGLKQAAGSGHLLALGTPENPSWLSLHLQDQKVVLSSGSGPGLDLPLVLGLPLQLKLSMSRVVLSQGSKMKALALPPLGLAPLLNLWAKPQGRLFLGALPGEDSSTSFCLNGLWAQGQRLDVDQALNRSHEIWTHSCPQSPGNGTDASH

25-hydroxy vitamin D [25OHD]
circulating vitamin D in the form of 25OHD, tightly bound to VDBP [1]: 85-90%
25OHD circulating in blood bound to albumin (albumin): 10-15%
circulating 25OHD that is free (not protein bound) (circulating): Less than 0.1%

C[C@]12CC[C@H]3[C@@H](CCC4=CC(=O)CC[C@@]43C)[C@@H]1CC[C@@H]2O [Te, Testosterone]
fraction of Te present in unbound, free form (circulating in blood): 1-3%
protein bound Te strongly bound to SHBG [2]: 60-70%
